Experimental data as given in paper PMC5159281 (Bioorganic & medicinal chemistry letters, 2016).

Key:
[1] = tested on: P. falciparum blood stage; conditions: result in words
CRL-8155 cells = assay: cells; conditions: Homo sapiens, CRL8155, read-out: CRL8155 EC50
HepG2 cells = assay: cells; conditions: Homo sapiens, HepG2, read-out: HepG2 EC50
PfCDPK1 = PfCDPK1 (Plasmodium falciparum, UniProt P62344); assay: biochemical
recombinant PfPKG = recombinant PfPKG (Plasmodium falciparum, UniProt Q8I719); assay: biochemical
recombinant PfCDPK4 = recombinant PfCDPK4 (Plasmodium falciparum, UniProt Q8IBS5); assay: biochemical
hERG = hERG (Homo sapiens, UniProt Q12809); conditions: cited from earlier work
[2] = cited from earlier work

PfCDPK1, sequence (P62344 whole entry): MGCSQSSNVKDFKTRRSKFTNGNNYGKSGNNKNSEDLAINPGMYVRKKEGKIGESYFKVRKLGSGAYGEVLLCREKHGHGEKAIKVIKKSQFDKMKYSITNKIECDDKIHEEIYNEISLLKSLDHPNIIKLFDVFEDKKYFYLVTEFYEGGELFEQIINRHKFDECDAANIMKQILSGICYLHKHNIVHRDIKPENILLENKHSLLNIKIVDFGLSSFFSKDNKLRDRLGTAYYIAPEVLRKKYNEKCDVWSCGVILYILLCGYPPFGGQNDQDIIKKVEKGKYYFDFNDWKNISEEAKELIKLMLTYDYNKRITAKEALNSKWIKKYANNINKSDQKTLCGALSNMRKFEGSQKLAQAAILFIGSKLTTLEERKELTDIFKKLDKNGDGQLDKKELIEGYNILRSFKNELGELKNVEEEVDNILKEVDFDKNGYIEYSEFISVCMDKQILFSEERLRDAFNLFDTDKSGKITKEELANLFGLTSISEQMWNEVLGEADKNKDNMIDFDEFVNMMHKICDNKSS
recombinant PfPKG, sequence (Q8I719 whole entry): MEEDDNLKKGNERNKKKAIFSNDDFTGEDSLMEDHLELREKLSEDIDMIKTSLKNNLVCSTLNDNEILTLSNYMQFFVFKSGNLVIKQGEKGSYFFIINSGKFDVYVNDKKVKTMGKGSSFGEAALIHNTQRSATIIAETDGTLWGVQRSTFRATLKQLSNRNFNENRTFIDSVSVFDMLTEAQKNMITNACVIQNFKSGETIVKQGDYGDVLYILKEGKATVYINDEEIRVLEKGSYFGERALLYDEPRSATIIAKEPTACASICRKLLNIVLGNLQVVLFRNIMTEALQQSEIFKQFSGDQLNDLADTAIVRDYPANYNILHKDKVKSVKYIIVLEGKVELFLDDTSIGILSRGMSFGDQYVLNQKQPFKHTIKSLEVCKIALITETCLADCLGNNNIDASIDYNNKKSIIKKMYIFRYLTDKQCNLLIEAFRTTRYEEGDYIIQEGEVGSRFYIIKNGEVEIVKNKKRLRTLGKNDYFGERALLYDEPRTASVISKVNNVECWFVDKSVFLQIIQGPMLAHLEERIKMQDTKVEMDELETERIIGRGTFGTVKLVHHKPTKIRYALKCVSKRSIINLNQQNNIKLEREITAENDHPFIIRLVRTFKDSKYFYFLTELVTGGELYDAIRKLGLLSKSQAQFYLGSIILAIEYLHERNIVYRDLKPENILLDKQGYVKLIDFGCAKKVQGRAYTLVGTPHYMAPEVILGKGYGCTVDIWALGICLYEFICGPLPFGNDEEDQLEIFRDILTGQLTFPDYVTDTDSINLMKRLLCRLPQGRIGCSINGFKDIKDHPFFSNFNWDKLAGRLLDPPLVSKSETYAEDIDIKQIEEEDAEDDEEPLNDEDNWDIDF
hERG, sequence (Q12809 whole entry): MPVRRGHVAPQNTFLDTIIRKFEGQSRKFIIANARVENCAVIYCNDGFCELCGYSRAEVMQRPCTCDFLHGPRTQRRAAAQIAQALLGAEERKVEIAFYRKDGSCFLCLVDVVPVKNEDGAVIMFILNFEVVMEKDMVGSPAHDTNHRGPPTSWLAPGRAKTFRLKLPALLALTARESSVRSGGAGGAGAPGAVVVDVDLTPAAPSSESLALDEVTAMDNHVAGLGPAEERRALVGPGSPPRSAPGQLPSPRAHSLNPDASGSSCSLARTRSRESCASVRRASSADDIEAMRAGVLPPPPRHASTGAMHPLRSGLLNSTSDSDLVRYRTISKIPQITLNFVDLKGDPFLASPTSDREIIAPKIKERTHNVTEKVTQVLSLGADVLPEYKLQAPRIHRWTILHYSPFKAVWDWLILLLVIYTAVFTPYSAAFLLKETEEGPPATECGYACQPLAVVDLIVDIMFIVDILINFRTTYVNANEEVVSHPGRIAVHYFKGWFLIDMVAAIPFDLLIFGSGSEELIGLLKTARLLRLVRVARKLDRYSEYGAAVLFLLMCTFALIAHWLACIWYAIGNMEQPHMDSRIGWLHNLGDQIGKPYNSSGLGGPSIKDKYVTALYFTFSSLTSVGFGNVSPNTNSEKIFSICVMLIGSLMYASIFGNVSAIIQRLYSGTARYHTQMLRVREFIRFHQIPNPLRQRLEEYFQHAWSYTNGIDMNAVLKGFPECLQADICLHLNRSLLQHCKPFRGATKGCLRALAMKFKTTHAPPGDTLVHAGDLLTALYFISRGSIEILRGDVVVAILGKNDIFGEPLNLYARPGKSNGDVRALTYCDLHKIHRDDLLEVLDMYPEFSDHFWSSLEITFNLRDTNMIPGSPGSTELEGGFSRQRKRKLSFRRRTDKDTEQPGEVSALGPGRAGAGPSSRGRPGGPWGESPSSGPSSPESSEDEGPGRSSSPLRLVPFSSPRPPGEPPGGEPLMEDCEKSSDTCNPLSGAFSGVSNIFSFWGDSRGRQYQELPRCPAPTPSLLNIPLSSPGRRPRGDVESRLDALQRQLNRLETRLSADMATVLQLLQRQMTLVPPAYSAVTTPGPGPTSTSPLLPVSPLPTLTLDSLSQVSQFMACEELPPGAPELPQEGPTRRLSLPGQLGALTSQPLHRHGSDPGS
recombinant PfCDPK4, sequence (Q8IBS5 whole entry): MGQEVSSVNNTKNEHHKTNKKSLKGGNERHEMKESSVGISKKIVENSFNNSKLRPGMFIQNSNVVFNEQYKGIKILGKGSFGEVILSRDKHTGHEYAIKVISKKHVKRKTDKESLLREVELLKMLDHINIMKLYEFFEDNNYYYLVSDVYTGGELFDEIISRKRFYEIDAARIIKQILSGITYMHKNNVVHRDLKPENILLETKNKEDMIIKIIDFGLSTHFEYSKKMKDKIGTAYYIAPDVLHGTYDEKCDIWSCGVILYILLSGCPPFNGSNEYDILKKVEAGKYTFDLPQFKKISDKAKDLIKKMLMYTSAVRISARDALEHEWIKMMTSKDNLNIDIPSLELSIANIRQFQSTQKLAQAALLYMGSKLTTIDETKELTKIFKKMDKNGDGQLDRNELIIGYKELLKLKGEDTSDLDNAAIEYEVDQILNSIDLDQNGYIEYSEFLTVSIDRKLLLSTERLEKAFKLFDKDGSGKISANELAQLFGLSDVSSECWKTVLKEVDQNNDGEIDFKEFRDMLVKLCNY

| SMILES | EC50 (CRL-8155 cells) [nM] | EC50 (HepG2 cells) [nM] | IC50 (PfCDPK1) [nM] | also measured |
| --- | --- | --- | --- | --- |
| CC(C)(C)n1nc(-c2ccc3cc(O)ccc3c2)c(C(N)=O)c1N [Compound 2] | > 30000 | > 30000 |  | anti-erythrocytic stage inhibition [1]: some observable anti-erythrocytic stage inhibition |
| COc1ccc2cc(-c3nn(C(C)(C)C)c(N)c3C(N)=O)cnc2c1 [Compound 4] | > 30000 | > 30000 |  |  |
| CCOc1ccc2cc(-c3nn(C(C)(C)C)c(N)c3C(N)=O)ccc2c1 [Compound 5] |  |  | 287 | IC50 (recombinant PfPKG): 2370 nM |
| CCOc1ccc2cc(-c3nn(C(C)(C)C)c(N)c3C(N)=O)cnc2c1 [Compound 6] |  | > 30000 |  | anti-erythrocytic stage inhibition [1]: some observable anti-erythrocytic stage inhibition |
| CC(C)(C)n1nc(-c2cnc3cc(OC4CC4)ccc3c2)c(C(N)=O)c1N [Compound 8] |  |  | 225 |  |
| CCOc1ccc2cc(-c3nn(C(C)C)c(N)c3C(N)=O)cnc2c1 [Compound 14] | > 30000 | > 30000 |  |  |
| CCOc1ccc2cc(-c3nn(CC(C)(C)CO)c(N)c3C(N)=O)cnc2c1 [Compound 17] | > 30000 | > 30000 |  |  |
| CCOc1ccc2cc(-c3nn(C4CCOC4)c(N)c3C(N)=O)ccc2n1 (centres unmarked) [Compound 25] |  |  | 468 | IC50 (recombinant PfCDPK4): 103 nM |
| CCOc1ccc2cc(-c3nn(C4CCCCC4)c(N)c3C(N)=O)ccc2n1 [Compound 26] | > 30000 | > 30000 |  | anti-erythrocytic stage inhibition [1]: some observable anti-erythrocytic stage inhibition |
| CC(C)n1nc(-c2ccc3nc(OC4CCC4)ccc3c2)c(C(N)=O)c1N [Compound 27] |  |  | 159 |  |
| CCOc1ccc2cc(-c3nn(CC4CCN(C)CC4)c4ncnc(N)c34)ccc2c1 [Compound 1294] |  |  |  | hERG inhibitory activity (hERG): hERG inhibitory activity at therapeutic concentrations; toxicity ([2]; initial mouse studies): low toxicity; oral availability ([2]; mouse): orally available |
